Like-named read-outs stand apart in the source and are kept apart here.
Test system: OCI-AML3 cells
Assay: Proliferation assay (spheroid confluence, 8 days), OCI-AML3
Format: cell-based, human
Conditions: read-out: spheroid assay_OCI-AML3 IC50
Protocol: The anti-proliferative effect of menin/MLL protein/protein interaction inhibitor test compounds was assessed in human leukemia cell lines. The cell line MOLM14 harbors a MLL translocation and expresses the MLL fusion protein MLL-AF9, respectively, as well as the wildtype protein from the second allele. OCI-AML3 cells that carry the NPM1c gene mutation were also tested. […] KO-52 was used as a control cell line containing two MLL (KMT2A) wildtype alleles in order to exclude compounds that display general cytotoxic effects.
MOLM14 cells were cultured in RPMI-1640 (Sigma Aldrich) supplemented with 10% heat-inactivated fetal bovine serum (HyClone), 2 mM L-glutamine (Sigma Aldrich) and 50 μg/ml gentamycin (Gibco). KO-52 and OCI-AML3 cell lines were propagated in alpha-MEM (Sigma Aldrich) supplemented with 20% heat-inactivated fetal bovine serum (HyClone), 2 mM L-glutamine (Sigma Aldrich) and 50 μg/ml gentamycin (Gibco).
In order to assess the anti-proliferative effects, 200 MOLM14 cells, 200 OCI-AML3 cells or 300 KO-52 cells were seeded in 200 μl media per well in 96-well round bottom, ultra-low attachment plates (Costar, catalogue number 7007). Cell seeding numbers were chosen based on growth curves to ensure linear growth throughout the experiment. Test compounds were added at different concentrations and the DMSO content was normalized to 0.3%. Cells were incubated for 8 days at 37° C. and 5% CO2. Spheroid like growth was measured in real-time by live-cell imaging (IncuCyteZOOM, Essenbio, 4×objective) acquiring images at day 8. Confluence (%) as a measure of spheroid size was determined using an integrated analysis tool.
In order to determine the effect of the test compounds over time, the confluence in each well as a measure of spheroid size, was calculated. Confluence of the highest dose of a reference compound was used as baseline for the LC (Low control) and the confluence of DMSO treated cells was used as 0% cytotoxicity (High Control, HC).
Absolute IC50 values were calculated as percent change in confluence as follows:
LC=Low Control: cells treated with e.g. 1 μM of the cytotoxic agent staurosporin, or e.g. cells treated with a high concentration of an alternative reference compound
HC=High Control: Mean confluence (%) (DMSO treated cells)
% Effect=100−(100*(Sample−LC)/(HC−LC))
GraphPad Prism (version 7.00) was used to calculate the IC50. Dose-response equation was used for the plot of % Effect vs Log10 compound concentration with a variable slope and fixing the maximum to 100% and the minimum to 0%.

[1] = Homo sapiens, OCI-AML-3, OCI-AML3

Compound | IC50 [1] | IC50 (OCI-AML3)
CN=S(=O)(c1cc(F)ccc1-n1cc(CC2CCN(CC3CCOCC3)C2)c2c(C)cncc21)C(C)C (single isomer, unassigned) [Compound 77b] | 128 nM | 
CC(=O)N1CCC(N2CC[C@H](Cc3cn(-c4ccc(F)cc4C(=O)N(C)C(C)C)c4cncc(C)c34)C2)CC1 (single isomer, unassigned) [Compound 81] | 100 nM | 
Cc1cncc2c1c(CC1CCN(CC3CCN(C(=O)[C@@H](C)O)CC3)C1)cn2-c1ccc(F)cc1C(=O)N(C)C(C)C (single isomer, unassigned) [Compound 85] | 22 nM | 
Cc1cncc2c1c(CC1CCN(CC3CCN(C(=O)[C@H](C)O)CC3)C1)cn2-c1ccc(F)cc1C(=O)N(C)C(C)C (single isomer, unassigned) [Compound 86] | 23 nM | 
CC(=O)N1CCC(C(C)N2CCC(Cc3cn(-c4ccc(F)cc4C(=O)N(C)C(C)C)c4cncc(C)c34)C2)CC1 (single isomer, unassigned) [Compound 116a] | 9 nM | 
Cc1cncc2c1c(CC1CCN(CC3CCN(C(=O)C(C)(C)O)CC3)C1)cn2-c1ccc(F)cc1C(=O)N(C)C(C)C (single isomer, unassigned) [Compound 125] | 12 nM | 
COCC(=O)N1CCC(CN2CC[C@@H](Cc3cn(-c4ccc(F)cc4C(=O)N(C)C(C)C)c4cncc(C)c34)C2)CC1 (single isomer, unassigned) [Compound 136] | 54 nM | 
CC(=O)N1CCC(N2CC[C@H](Cc3cn(-c4ccc(F)cc4C(=O)N(C)C(C)C)c4cncc(C)c34)C2)C(C)C1 (single isomer, unassigned) [Compound 137a] | 23 nM | 
CNC(=O)[C@H]1CC[C@H](CN2CC([C@H](C)c3cn(-c4ccc(F)cc4C(=O)N(C)C(C)C)c4cncc(C)c34)C2)CC1 (single isomer, unassigned) [Compound 164b] | 12 nM | 
Cc1cncc2c1c(CC1CCN(CC3CCC(=O)N(C)CC3)C1)cn2-c1ccc(F)cc1C(=O)N(C)C(C)C (single isomer, unassigned) [Compound 184a] |  | 26 nM
Cc1cncc2c1c(CC1CCN(CC3CCC(=O)N(C)CC3)C1)cn2-c1ccc(F)cc1C(=O)N(C)C(C)C (single isomer, unassigned) [Compound 184b] |  | 138 nM
Cc1cncc2c1c(C[C@@H]1CCN([C@@H](CO)C3CCCOC3)C1)cn2-c1ccc(F)cc1C(=O)N(C)C(C)C (single isomer, unassigned) [Compound 198a] | 15 nM | 
Cc1cncc2c1c(C[C@@H]1CCN([C@H](CO)C3CCCOC3)C1)cn2-c1ccc(F)cc1C(=O)N(C)C(C)C (single isomer, unassigned) [Compound 198b] | 156 nM | 
Cc1cncc2c1c(C[C@@H]1CCN(C[C@H]3CCNC(=O)CC3)C1)cn2-c1ccc(F)cc1C(=O)N1[C@H](C)CC[C@H]1C (single isomer, unassigned) [Compound 352a] | 11 nM | 
Cc1cncc2c1c(C[C@@H]1CCN(C[C@@H]3CCNC(=O)CC3)C1)cn2-c1ccc(F)cc1C(=O)N1[C@H](C)CC[C@H]1C (single isomer, unassigned) [Compound 352b] | 263 nM | 
Cc1cncc2c1c(C[C@@H]1CCN(CC3CCNC(=O)CC3)C1)cn2-c1ccc(F)cc1C(=O)N1CCC[C@H]1C (single isomer, unassigned) [Compound 353a] |  | 11 nM
CC(=O)N1CCC(C)(CN2CC(Cc3cn(-c4ccc(F)cc4C(=O)N(C)C(C)C)c4cncc(C)c34)C2)CC1 [Compound 84] | 120 nM | 
CC(=O)NC1CCC(N2CC[C@@H](Cc3cn(-c4ccc(F)cc4C(=O)N(C)C(C)C)c4cncc(C)c34)C2)CC1 (some centres unmarked) [Compound 201] | 35 nM | 
CC(=O)N1CCC(CN2CCC(Cc3cn(-c4ccc(F)cc4C(=O)N(C)C(C)C)c4cncc(C)c34)C2C)CC1 (centres unmarked) [Compound 228] | 11 nM | 
Cc1cncc2c1c(C[C@@H]1CCN(CC3CCN(C(=O)C(C)C)CC3)C1)cn2-c1ccc(F)cc1C(=O)N1CCC[C@H]1CO [Compound 328] | 52 nM | 
